Measured values taken from ChEMBL document CHEMBL1201862, “PubChem BioAssay data set” (2004).
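Where inhibition never reached the appropriate level, the endpoint shown equals the highest concentration tested. Otherwise, values were interpolated linearly from a five-concentration, 48-hour dose response in 96-well plates. Abbreviation: GI50, concentration required for 50% inhibition of growth.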 Activity calls are given as the source filed them. Rule as the data show it: active = GI50 up to about 1.1 µM and inactive = higher.

Tests used:
Experiment in all cases: DTP human tumour cell line panel, 48 h
DU-145 = test system: DU-145
UACC-62 = test system: UACC-62
HT-29 = test system: HT-29
HCT-116 = test system: HCT-116
MDA-MB-231 = test system: MDA-MB-231
MDA-MB-435 = test system: MDA-MB-435
CAKI-1 = test system: CAKI-1
RXF 393 = test system: RXF 393
PC-3 = test system: PC-3
SF-268 = test system: SF-268
NCI-H226 = test system: NCI-H226
ACHN = test system: ACHN
A549 = test system: A549
IGROV-1 = test system: IGROV-1
HOP-92 = test system: HOP-92
Hs-578T = test system: Hs-578T
HCT-15 = test system: HCT-15
NCI-H23 = test system: NCI-H23

Compound	GI50 (DU-145)	GI50 (UACC-62)	GI50 (HT-29)	GI50 (HCT-116)	GI50 (MDA-MB-231)	GI50 (MDA-MB-435)	GI50 (CAKI-1)	GI50 (RXF 393)	GI50 (PC-3)	GI50 (SF-268)	GI50 (NCI-H226)	GI50 (ACHN)	GI50 (A549)	GI50 (IGROV-1)	GI50 (HOP-92)	GI50 (Hs-578T)	GI50 (HCT-15)	GI50 (NCI-H23)
c1ccc(CCN2CCOCC2)nc1	> 100 µM (inactive)	> 100 µM (inactive)	> 100 µM (inactive)	> 100 µM (inactive)	> 100 µM (inactive)	> 100 µM (inactive)	> 100 µM (inactive)	> 100 µM (inactive)	> 100 µM (inactive)	> 100 µM (inactive)	> 100 µM (inactive)	> 100 µM (inactive)	> 100 µM (inactive)	> 100 µM (inactive)	> 100 µM (inactive)	> 100 µM (inactive)	> 100 µM	> 100 µM (inactive)
Cn1c(=O)cc(NCCc2ccccc2)[nH]c1=O	52 µM (inactive)	19.9 µM (inactive)	25.5 µM (inactive)	34.2 µM (inactive)	12.3 µM (inactive)	5.46 µM (inactive)	22.8 µM (inactive)	57.8 µM (inactive)	13 µM (inactive)	> 100 µM (inactive)	> 100 µM (inactive)	39.3 µM (inactive)	38.8 µM (inactive)	38.8 µM (inactive)	> 100 µM (inactive)	14.1 µM (inactive)	29.3 µM	91.8 µM (inactive)
OCC1CCCC(n2cnc3c(S)ncnc32)O1 (centres undefined)	> 100 µM (inactive)	> 100 µM (inactive)	> 100 µM (inactive)	> 100 µM (inactive)	> 100 µM (inactive)	> 100 µM (inactive)	> 100 µM (inactive)	> 100 µM (inactive)	> 100 µM (inactive)	> 100 µM (inactive)	> 100 µM (inactive)	> 100 µM (inactive)	> 100 µM (inactive)	> 100 µM (inactive)	> 100 µM (inactive)	> 100 µM (inactive)	> 100 µM	> 100 µM (inactive)
CCCC1c2c(ccc3ccccc23)Oc2ccc3ccccc3c21	84.3 µM (inactive)	84.9 µM (inactive)	28.1 µM (inactive)	20.7 µM (inactive)	31.7 µM (inactive)	41.4 µM (inactive)	> 100 µM (inactive)	29.1 µM (inactive)	64.4 µM (inactive)	79.8 µM (inactive)	60.3 µM (inactive)	31 µM (inactive)	47.5 µM (inactive)	50.7 µM (inactive)	> 100 µM (inactive)	> 100 µM (inactive)	31.6 µM	60.4 µM (inactive)
COc1cc2c3c4[n+](cc2c(OC)c1OC)CCC4CCC3 (centres undefined)	> 100 µM (inactive)	> 100 µM (inactive)	> 100 µM (inactive)	> 100 µM (inactive)	> 100 µM (inactive)	> 100 µM (inactive)	> 100 µM (inactive)	> 84.3 µM (inactive)	> 100 µM (inactive)	> 100 µM (inactive)	> 100 µM (inactive)	> 100 µM (inactive)	> 100 µM (inactive)	> 100 µM (inactive)	> 100 µM (inactive)	> 100 µM (inactive)	> 100 µM	98.9 µM (inactive)
O=C(c1ccccc1F)c1c(NCc2ccccc2)c(=O)c1=O	> 100 µM (inactive)	> 100 µM (inactive)	> 100 µM (inactive)	> 100 µM (inactive)	> 100 µM (inactive)	> 100 µM (inactive)	> 100 µM (inactive)	> 100 µM (inactive)	> 100 µM (inactive)	> 100 µM (inactive)	> 100 µM (inactive)	> 100 µM (inactive)	> 100 µM (inactive)	55.7 µM (inactive)	> 100 µM (inactive)	> 100 µM (inactive)	> 100 µM	> 100 µM (inactive)
Cc1ccc(S(=O)(=O)NC(=O)C2=C3SCCN3C(=O)N(S(=O)(=O)c3ccc(C)cc3)C2c2ccccc2)cc1 (centres undefined)	> 100 µM (inactive)	37.3 µM (inactive)	34.4 µM (inactive)	36.1 µM (inactive)	36.6 µM (inactive)	22.9 µM (inactive)	> 100 µM (inactive)	25.1 µM (inactive)	33.9 µM (inactive)	32.3 µM (inactive)	> 100 µM (inactive)	> 100 µM (inactive)	> 100 µM (inactive)	46.9 µM (inactive)	28.1 µM (inactive)	48.4 µM (inactive)	> 100 µM	40.6 µM (inactive)
COC(=O)c1cc(=O)nc2sc3cccc(C)c3n12	> 100 µM (inactive)	46.2 µM (inactive)	28.5 µM (inactive)	28.8 µM (inactive)	24.8 µM (inactive)	42 µM (inactive)	24.6 µM (inactive)	56.1 µM (inactive)	21 µM (inactive)	61.1 µM (inactive)	18.7 µM (inactive)	20.9 µM (inactive)	46.9 µM (inactive)	92 µM (inactive)	30.2 µM (inactive)	56.2 µM (inactive)	43 µM	55 µM (inactive)
O=[N+]([O-])C1CC/C(=N/O)c2nonc21 (centres undefined)	> 10 µM (inactive)	> 10 µM (inactive)	> 10 µM (inactive)	> 10 µM (inactive)	> 10 µM (inactive)	> 10 µM (inactive)	> 10 µM (inactive)	> 10 µM (inactive)	> 10 µM (inactive)	> 10 µM (inactive)	> 10 µM (inactive)	> 10 µM (inactive)	> 10 µM (inactive)	> 10 µM (inactive)	> 10 µM (inactive)	> 10 µM (inactive)	> 10 µM	> 10 µM (inactive)
c1ccc(/C(=N/Nc2cnccn2)c2ncccn2)cc1	90.2 µM (inactive)	88.3 µM (inactive)	27.4 µM (inactive)	> 100 µM (inactive)	68.2 µM (inactive)	> 100 µM (inactive)	50.9 µM (inactive)	> 100 µM (inactive)	> 100 µM (inactive)	22.5 µM (inactive)	–	40.7 µM (inactive)	> 100 µM (inactive)	23.7 µM (inactive)	35.7 µM (inactive)	23.1 µM (inactive)	50.6 µM	> 100 µM (inactive)
Cc1cc2c(cc1C)C(=O)C1(C2)Cc2c(ccc(C)c2C)C1=O (centres undefined)	> 100 µM (inactive)	> 100 µM (inactive)	–	> 100 µM (inactive)	> 100 µM (inactive)	> 100 µM (inactive)	> 100 µM (inactive)	53.8 µM (inactive)	> 100 µM (inactive)	90.8 µM (inactive)	> 100 µM (inactive)	> 100 µM (inactive)	73.6 µM (inactive)	> 100 µM (inactive)	79.4 µM (inactive)	42.5 µM (inactive)	> 100 µM	–
O=C(N/C(=C/c1ccc(Cl)cc1Cl)c1nc2ccccc2s1)c1ccccc1	16.2 µM (inactive)	16.6 µM (inactive)	19.3 µM (inactive)	6.78 µM (inactive)	10.3 µM (inactive)	15.6 µM (inactive)	15.8 µM (inactive)	31 µM (inactive)	18 µM (inactive)	14 µM (inactive)	13.6 µM (inactive)	6.56 µM (inactive)	18.1 µM (inactive)	11.1 µM (inactive)	52.6 µM (inactive)	12.1 µM (inactive)	4.37 µM	11.8 µM (inactive)
CC(NCc1c(O)ccc2c(-c3ccccc3)cc(=O)oc12)C(=O)O (centres undefined)	> 100 µM (inactive)	> 100 µM (inactive)	> 100 µM (inactive)	> 100 µM (inactive)	> 100 µM (inactive)	> 100 µM (inactive)	> 100 µM (inactive)	> 100 µM (inactive)	> 100 µM (inactive)	> 100 µM (inactive)	> 100 µM (inactive)	> 100 µM (inactive)	> 100 µM (inactive)	> 100 µM (inactive)	86.1 µM (inactive)	> 100 µM (inactive)	> 100 µM	> 100 µM (inactive)
CC(O)c1cc2c(s1)C(=O)c1scc(C(C)O)c1C2=O (centres undefined)	0.614 µM (active)	0.245 µM (active)	2.43 µM (inactive)	0.659 µM (active)	0.316 µM (active)	0.175 µM (active)	1.01 µM (active)	0.881 µM (active)	0.388 µM (active)	0.28 µM (active)	2 µM (inactive)	0.853 µM (active)	0.67 µM (active)	1.68 µM (inactive)	1.96 µM (inactive)	0.394 µM (active)	0.352 µM	0.191 µM (active)
O=C(Nc1ccn(C2CCC(COC(c3ccccc3)(c3ccccc3)c3ccccc3)O2)c(=O)n1)c1ccccc1 (centres undefined)	7.91 µM (inactive)	5.5 µM (inactive)	2.4 µM (inactive)	3.33 µM (inactive)	5.87 µM (inactive)	3.42 µM (inactive)	4.51 µM (inactive)	2.9 µM (inactive)	1.5 µM (inactive)	7.64 µM (inactive)	6.9 µM (inactive)	3.8 µM (inactive)	4.21 µM (inactive)	6.04 µM (inactive)	1.86 µM (inactive)	3.54 µM (inactive)	4.18 µM	2.31 µM (inactive)
COc1ccc2[nH]c(Cl)c(/C=C3/C(=O)N(c4ccccc4)c4ccccc43)c2c1	18.3 µM (inactive)	5.21 µM (inactive)	3.98 µM (inactive)	5.07 µM (inactive)	6.35 µM (inactive)	1.46 µM (inactive)	10.6 µM (inactive)	15.9 µM (inactive)	3.7 µM (inactive)	5.08 µM (inactive)	–	7.57 µM (inactive)	5.31 µM (inactive)	4.84 µM (inactive)	13.7 µM (inactive)	4.74 µM (inactive)	2.58 µM	4.06 µM (inactive)
